{"source": "ChEMBL document CHEMBL1148109", "about": "“Nobiloside, a new neuraminidase inhibitory triterpenoidal saponin from the marine sponge Erylus nobilis” (J Nat Prod, 2002)", "key": {"[1]": {"target": "T1, Sialidase (Clostridium perfringens) (UniProt P10481)", "T1 sequence (whole entry)": "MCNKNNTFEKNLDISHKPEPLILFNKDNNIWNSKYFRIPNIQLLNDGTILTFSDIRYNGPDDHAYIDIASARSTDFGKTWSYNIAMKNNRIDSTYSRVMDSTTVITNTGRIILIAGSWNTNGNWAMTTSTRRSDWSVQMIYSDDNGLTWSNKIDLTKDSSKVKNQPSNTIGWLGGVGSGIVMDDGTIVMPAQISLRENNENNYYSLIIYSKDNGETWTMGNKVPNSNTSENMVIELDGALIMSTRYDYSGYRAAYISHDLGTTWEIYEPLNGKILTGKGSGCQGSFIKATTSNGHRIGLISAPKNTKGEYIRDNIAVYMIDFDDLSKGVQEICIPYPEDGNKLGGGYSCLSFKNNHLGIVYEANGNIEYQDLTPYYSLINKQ", "test": "Inhibition of Clostridium perfringens neuraminidase at 100 ug/mL"}, "Sialidase": {"target": "T2, Sialidase (Clostridium perfringens, UniProt P10481)", "T2 sequence (P10481 whole entry)": "T1 sequence (whole entry)", "test": "Inhibition of Clostridium perfringens neuraminidase"}}, "note": "Activity calls are given as the source filed them. The calls are words filed in the database; no cut-off is given here.", "data": [{"smiles": "COC(=O)[C@H]1O[C@@H](O[C@H]2[C@H](O)[C@@H](O)[C@H](O[C@H]3CC[C@]4(C)C5=C(CC[C@H]4C3(C)C)[C@]3(C(=O)OC)CC[C@H]([C@H](C)CCC=C(C)C)[C@@]3(C)CC5)O[C@@H]2C(=O)OC)[C@H](O)[C@@H](O[C@@H]2OC[C@H](O)[C@H](O)[C@H]2O)[C@H]1O", "values": [{"measurement": "Activity", "setting": "[1]", "value": "inactive"}]}, {"smiles": "CC(C)=CCC[C@@H](C)[C@H]1CC[C@@]2(C(=O)O)C3=C(CC[C@]12C)[C@@]1(C)CC[C@H](O[C@@H]2O[C@H](C(=O)O)[C@@H](O[C@@H]4O[C@H](C(=O)O)[C@H](O)[C@H](O[C@@H]5OC[C@H](O)[C@H](O)[C@H]5O)[C@H]4O)[C@H](O)[C@H]2O)C(C)(C)[C@@H]1CC3", "note": "[NOBILOSIDE]", "values": [{"measurement": "IC50", "setting": "Sialidase", "value": 489, "unit": "nM"}]}]}
